Assay results from US7666890B2, “Synthesis and herbicidal activity of 1- (2-substituted benzo[d]thiazol-5-yl)-1H-1,2,4-triazol-5(4H)-one derivatives” (Huazhong Normal University, priority 2007, dated 2010).

Columns and labels:
Assay in all cases: Test of herbicidal activities (greenhouse pot method)
Type in all cases: in vivo
Conditions in all cases: single dose 300 g ai./h, treated before/after germination, 15 days later, greenhouse pot
Setaria viridis = tested on: Setaria viridis
Procedure, shortened: (§1)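 Greenhouse pot test at a single dose of 300 g ai./h, applied by spray tower pre- or post-emergence, with grasses at the 2-leaf stage, in triplicate with a blank control. Plants were kept at 15–30 °C. Inhibition was graded after 15 days: A 90–100%, B 80–<90%, C 60–<80%, D 50–<60%, E <50%.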

Amaranthus retroflexus = tested on: Amaranthus retroflexus
Procedure, shortened: as §1

Digiatria sanguinalis = tested on: Digiatria sanguinalis
Procedure, shortened: as §1

Echinochloa crusgalli = tested on: Echinochloa crusgalli
Procedure, shortened: as §1

Brassica juncea = tested on: Brassica juncea
Procedure, shortened: as §1

Chenopodium album = tested on: Chenopodium album
Procedure, shortened: as §1

## Cc1nn(-c2cc3nc(SCc4cccc(F)c4)sc3cc2F)c(=O)n1C(F)F [Compound 19]
Setaria viridis
  Herbicidal activity Setaria viridis (inhibition level): C (60 ≦ C < 80%)
Amaranthus retroflexus
  Herbicidal activity Amaranthus retroflexus (inhibition level): A (90 ≦ A ≦ 100%)
Digiatria sanguinalis
  Herbicidal activity Digiatria sanguinalis (inhibition level): B (80 ≦ B < 90%)
Echinochloa crusgalli
  Herbicidal activity Echinochloa crusgalli (inhibition level): E (E < 50%)
Brassica juncea
  Herbicidal activity Brassica juncea (inhibition level): B (80 ≦ B < 90%)
Chenopodium album
  Herbicidal activity Chenopodium album (inhibition level): A (90 ≦ A ≦ 100%)

## CSc1nc2cc(-n3nc(C)n(C(F)F)c3=O)c(Cl)cc2s1 [Compound 96]
Setaria viridis
  Herbicidal activity Setaria viridis (inhibition level): C (60 ≦ C < 80%)
Amaranthus retroflexus
  Herbicidal activity Amaranthus retroflexus (inhibition level): B (80 ≦ B < 90%)
Digiatria sanguinalis
  Herbicidal activity Digiatria sanguinalis (inhibition level): B (80 ≦ B < 90%)
Echinochloa crusgalli
  Herbicidal activity Echinochloa crusgalli (inhibition level): B (80 ≦ B < 90%)
Brassica juncea
  Herbicidal activity Brassica juncea (inhibition level): B (80 ≦ B < 90%)
Chenopodium album
  Herbicidal activity Chenopodium album (inhibition level): B (80 ≦ B < 90%)

## CCOC(=O)C(C)[S+]([O-])c1nc2cc(-n3nc(C)n(C(F)F)c3=O)c(F)cc2s1 (stereo not drawn) [Compound 118]
Setaria viridis
  Herbicidal activity Setaria viridis (inhibition level): C (60 ≦ C < 80%)
Amaranthus retroflexus
  Herbicidal activity Amaranthus retroflexus (inhibition level): A (90 ≦ A ≦ 100%)
Digiatria sanguinalis
  Herbicidal activity Digiatria sanguinalis (inhibition level): C (60 ≦ C < 80%)
Echinochloa crusgalli
  Herbicidal activity Echinochloa crusgalli (inhibition level): D (50 ≦ D < 60%)
Brassica juncea
  Herbicidal activity Brassica juncea (inhibition level): D (50 ≦ D < 60%)
Chenopodium album
  Herbicidal activity Chenopodium album (inhibition level): B (80 ≦ B < 90%)

## Cc1nn(-c2cc3nc(S(=O)(=O)Cc4ccc(Br)cc4)sc3cc2Cl)c(=O)n1C(F)F [Compound 42]
Setaria viridis
  Herbicidal activity Setaria viridis (inhibition level): B (80 ≦ B < 90%)
Amaranthus retroflexus
  Herbicidal activity Amaranthus retroflexus (inhibition level): A (90 ≦ A ≦ 100%)
Digiatria sanguinalis
  Herbicidal activity Digiatria sanguinalis (inhibition level): A (90 ≦ A ≦ 100%)
Echinochloa crusgalli
  Herbicidal activity Echinochloa crusgalli (inhibition level): E (E < 50%)
Brassica juncea
  Herbicidal activity Brassica juncea (inhibition level): C (60 ≦ C < 80%)
Chenopodium album
  Herbicidal activity Chenopodium album (inhibition level): D (50 ≦ D < 60%)

## Cc1nn(-c2cc3nc(SCc4cccs4)sc3cc2F)c(=O)n1C(F)F [Compound 73]
Setaria viridis
  Herbicidal activity Setaria viridis (inhibition level): B (80 ≦ B < 90%)
Amaranthus retroflexus
  Herbicidal activity Amaranthus retroflexus (inhibition level): A (90 ≦ A ≦ 100%)
Digiatria sanguinalis
  Herbicidal activity Digiatria sanguinalis (inhibition level): A (90 ≦ A ≦ 100%)
Echinochloa crusgalli
  Herbicidal activity Echinochloa crusgalli (inhibition level): B (80 ≦ B < 90%)
Brassica juncea
  Herbicidal activity Brassica juncea (inhibition level): B (80 ≦ B < 90%)
Chenopodium album
  Herbicidal activity Chenopodium album (inhibition level): A (90 ≦ A ≦ 100%)

## C=CCSc1nc2cc(-n3nc(C)n(C(F)F)c3=O)c(Br)cc2s1 [Compound 88]
Setaria viridis
  Herbicidal activity Setaria viridis (inhibition level): D (50 ≦ D < 60%)
Amaranthus retroflexus
  Herbicidal activity Amaranthus retroflexus (inhibition level): A (90 ≦ A ≦ 100%)
Digiatria sanguinalis
  Herbicidal activity Digiatria sanguinalis (inhibition level): A (90 ≦ A ≦ 100%)
Echinochloa crusgalli
  Herbicidal activity Echinochloa crusgalli (inhibition level): B (80 ≦ B < 90%)
Brassica juncea
  Herbicidal activity Brassica juncea (inhibition level): A (90 ≦ A ≦ 100%)
Chenopodium album
  Herbicidal activity Chenopodium album (inhibition level): B (80 ≦ B < 90%)

## Cc1nn(-c2cc3nc([S+]([O-])Cc4cccc(Cl)c4)sc3cc2Cl)c(=O)n1C(F)F (stereo not drawn) [Compound 107]
Setaria viridis
  Herbicidal activity Setaria viridis (inhibition level): D (50 ≦ D < 60%)
Amaranthus retroflexus
  Herbicidal activity Amaranthus retroflexus (inhibition level): A (90 ≦ A ≦ 100%)
Digiatria sanguinalis
  Herbicidal activity Digiatria sanguinalis (inhibition level): B (80 ≦ B < 90%)
Echinochloa crusgalli
  Herbicidal activity Echinochloa crusgalli (inhibition level): B (80 ≦ B < 90%)
Brassica juncea
  Herbicidal activity Brassica juncea (inhibition level): A (90 ≦ A ≦ 100%)
Chenopodium album
  Herbicidal activity Chenopodium album (inhibition level): B (80 ≦ B < 90%)

## CSc1nc2cc(-n3nc(C(F)(F)F)n(C(F)F)c3=O)c(Cl)cc2s1 [Compound 125]
Setaria viridis
  Herbicidal activity Setaria viridis (inhibition level): C (60 ≦ C < 80%)
Amaranthus retroflexus
  Herbicidal activity Amaranthus retroflexus (inhibition level): A (90 ≦ A ≦ 100%)
Digiatria sanguinalis
  Herbicidal activity Digiatria sanguinalis (inhibition level): B (80 ≦ B < 90%)
Echinochloa crusgalli
  Herbicidal activity Echinochloa crusgalli (inhibition level): B (80 ≦ B < 90%)
Brassica juncea
  Herbicidal activity Brassica juncea (inhibition level): C (60 ≦ C < 80%)
Chenopodium album
  Herbicidal activity Chenopodium album (inhibition level): B (80 ≦ B < 90%)

## Cc1nn(-c2cc3nc(SCc4ccc(Br)cc4F)sc3cc2F)c(=O)n1C(F)F [Compound 22]
Setaria viridis
  Herbicidal activity Setaria viridis (inhibition level): C (60 ≦ C < 80%)
Amaranthus retroflexus
  Herbicidal activity Amaranthus retroflexus (inhibition level): B (80 ≦ B < 90%)
Digiatria sanguinalis
  Herbicidal activity Digiatria sanguinalis (inhibition level): C (60 ≦ C < 80%)
Echinochloa crusgalli
  Herbicidal activity Echinochloa crusgalli (inhibition level): C (60 ≦ C < 80%)
Brassica juncea
  Herbicidal activity Brassica juncea (inhibition level): D (50 ≦ D < 60%)
Chenopodium album
  Herbicidal activity Chenopodium album (inhibition level): D (50 ≦ D < 60%)

## CCCCSc1nc2cc(-n3nc(C)n(C(F)F)c3=O)c(F)cc2s1 [Compound 91]
Setaria viridis
  Herbicidal activity Setaria viridis (inhibition level): A (90 ≦ A ≦ 100%)
Amaranthus retroflexus
  Herbicidal activity Amaranthus retroflexus (inhibition level): A (90 ≦ A ≦ 100%)
Digiatria sanguinalis
  Herbicidal activity Digiatria sanguinalis (inhibition level): A (90 ≦ A ≦ 100%)
Echinochloa crusgalli
  Herbicidal activity Echinochloa crusgalli (inhibition level): A (90 ≦ A ≦ 100%)
Brassica juncea
  Herbicidal activity Brassica juncea (inhibition level): A (90 ≦ A ≦ 100%)
Chenopodium album
  Herbicidal activity Chenopodium album (inhibition level): C (60 ≦ C < 80%)

## CSc1nc2cc(-n3nc(C)n(C(F)F)c3=O)c(Br)cc2s1 [Compound 79]
Setaria viridis
  Herbicidal activity Setaria viridis (inhibition level): B (80 ≦ B < 90%)
Amaranthus retroflexus
  Herbicidal activity Amaranthus retroflexus (inhibition level): B (80 ≦ B < 90%)
Digiatria sanguinalis
  Herbicidal activity Digiatria sanguinalis (inhibition level): A (90 ≦ A ≦ 100%)
Echinochloa crusgalli
  Herbicidal activity Echinochloa crusgalli (inhibition level): B (80 ≦ B < 90%)
Brassica juncea
  Herbicidal activity Brassica juncea (inhibition level): B (80 ≦ B < 90%)
Chenopodium album
  Herbicidal activity Chenopodium album (inhibition level): C (60 ≦ C < 80%)

## CCCCS(=O)(=O)c1nc2cc(-n3nc(C)n(C(F)F)c3=O)c(Cl)cc2s1 [Compound 69]
Setaria viridis
  Herbicidal activity Setaria viridis (inhibition level): B (80 ≦ B < 90%)
Amaranthus retroflexus
  Herbicidal activity Amaranthus retroflexus (inhibition level): A (90 ≦ A ≦ 100%)
Digiatria sanguinalis
  Herbicidal activity Digiatria sanguinalis (inhibition level): B (80 ≦ B < 90%)
Echinochloa crusgalli
  Herbicidal activity Echinochloa crusgalli (inhibition level): A (90 ≦ A ≦ 100%)
Brassica juncea
  Herbicidal activity Brassica juncea (inhibition level): B (80 ≦ B < 90%)
Chenopodium album
  Herbicidal activity Chenopodium album (inhibition level): C (60 ≦ C < 80%)

## Cc1nn(-c2cc3nc(SCc4ccccc4)sc3cc2F)c(=O)n1C [Compound 30]
Setaria viridis
  Herbicidal activity Setaria viridis (inhibition level): B (80 ≦ B < 90%)
Amaranthus retroflexus
  Herbicidal activity Amaranthus retroflexus (inhibition level): A (90 ≦ A ≦ 100%)
Digiatria sanguinalis
  Herbicidal activity Digiatria sanguinalis (inhibition level): B (80 ≦ B < 90%)
Echinochloa crusgalli
  Herbicidal activity Echinochloa crusgalli (inhibition level): E (E < 50%)
Brassica juncea
  Herbicidal activity Brassica juncea (inhibition level): D (50 ≦ D < 60%)
Chenopodium album
  Herbicidal activity Chenopodium album (inhibition level): C (60 ≦ C < 80%)

## CCOCCSc1nc2cc(-n3nc(C)n(C(F)F)c3=O)c(Cl)cc2s1 [Compound 78]
Setaria viridis
  Herbicidal activity Setaria viridis (inhibition level): A (90 ≦ A ≦ 100%)
Amaranthus retroflexus
  Herbicidal activity Amaranthus retroflexus (inhibition level): A (90 ≦ A ≦ 100%)
Digiatria sanguinalis
  Herbicidal activity Digiatria sanguinalis (inhibition level): A (90 ≦ A ≦ 100%)
Echinochloa crusgalli
  Herbicidal activity Echinochloa crusgalli (inhibition level): C (60 ≦ C < 80%)
Brassica juncea
  Herbicidal activity Brassica juncea (inhibition level): D (50 ≦ D < 60%)
Chenopodium album
  Herbicidal activity Chenopodium album (inhibition level): B (80 ≦ B < 90%)

## Cc1ccccc1CSc1nc2cc(-n3nc(C)n(C(F)F)c3=O)c(F)cc2s1 [Compound 14]
Setaria viridis
  Herbicidal activity Setaria viridis (inhibition level): C (60 ≦ C < 80%)
Amaranthus retroflexus
  Herbicidal activity Amaranthus retroflexus (inhibition level): B (80 ≦ B < 90%)
Digiatria sanguinalis
  Herbicidal activity Digiatria sanguinalis (inhibition level): C (60 ≦ C < 80%)
Echinochloa crusgalli
  Herbicidal activity Echinochloa crusgalli (inhibition level): B (80 ≦ B < 90%)
Brassica juncea
  Herbicidal activity Brassica juncea (inhibition level): A (90 ≦ A ≦ 100%)
Chenopodium album
  Herbicidal activity Chenopodium album (inhibition level): C (60 ≦ C < 80%)

## Cc1ccccc1CS(=O)(=O)c1nc2cc(-n3nc(C)n(C(F)F)c3=O)c(F)cc2s1 [Compound 43]
Setaria viridis
  Herbicidal activity Setaria viridis (inhibition level): C (60 ≦ C < 80%)
Amaranthus retroflexus
  Herbicidal activity Amaranthus retroflexus (inhibition level): A (90 ≦ A ≦ 100%)
Digiatria sanguinalis
  Herbicidal activity Digiatria sanguinalis (inhibition level): D (50 ≦ D < 60%)
Echinochloa crusgalli
  Herbicidal activity Echinochloa crusgalli (inhibition level): D (50 ≦ D < 60%)
Brassica juncea
  Herbicidal activity Brassica juncea (inhibition level): C (60 ≦ C < 80%)
Chenopodium album
  Herbicidal activity Chenopodium album (inhibition level): C (60 ≦ C < 80%)

## Cc1nn(-c2cc3nc(SCc4ccccc4)sc3cc2F)c(=O)n1C(F)F [Compound 11]
Setaria viridis
  Herbicidal activity Setaria viridis (inhibition level): C (60 ≦ C < 80%)
Amaranthus retroflexus
  Herbicidal activity Amaranthus retroflexus (inhibition level): B (80 ≦ B < 90%)
Digiatria sanguinalis
  Herbicidal activity Digiatria sanguinalis (inhibition level): B (80 ≦ B < 90%)
Echinochloa crusgalli
  Herbicidal activity Echinochloa crusgalli (inhibition level): E (E < 50%)
Brassica juncea
  Herbicidal activity Brassica juncea (inhibition level): A (90 ≦ A ≦ 100%)
Chenopodium album
  Herbicidal activity Chenopodium album (inhibition level): C (60 ≦ C < 80%)

## Cc1nn(-c2cc3nc(S(=O)(=O)Cc4ccccc4)sc3cc2F)c(=O)n1C [Compound 34]
Setaria viridis
  Herbicidal activity Setaria viridis (inhibition level): A (90 ≦ A ≦ 100%)
Amaranthus retroflexus
  Herbicidal activity Amaranthus retroflexus (inhibition level): B (80 ≦ B < 90%)
Digiatria sanguinalis
  Herbicidal activity Digiatria sanguinalis (inhibition level): A (90 ≦ A ≦ 100%)
Echinochloa crusgalli
  Herbicidal activity Echinochloa crusgalli (inhibition level): B (80 ≦ B < 90%)
Brassica juncea
  Herbicidal activity Brassica juncea (inhibition level): D (50 ≦ D < 60%)
Chenopodium album
  Herbicidal activity Chenopodium album (inhibition level): C (60 ≦ C < 80%)
